Experimental data reported in US6426355B1, “Heterocyclic carboxamide-containing thiourea inhibitors of herpes viruses containing phenylenediamine group” (American Home Products, priority 1998, dated 2002).
≈ marks a conversion by molar mass, not a printed value.

Tests used:
[1] = test system: HCMV recombinant mutant virus (RV145); assay: HCMV microtiter plate assay (beta-glucuronidase reporter); type: cell-based, Human Cytomegalovirus; settings: for IC50 (ug/ml) HCMV: HCMV in human foreskin fibroblasts
Procedure, shortened: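 Human foreskin fibroblasts were infected with RV145 in the presence of inhibitor. β-glucuronidase under a viral promoter served as the replication marker. At 96 h post-infection, lysates in pH 7.0 phosphate with Triton X-100/sarkosyl were assayed colorimetrically or fluorometrically, and IC50 was estimated from varying inhibitor amounts.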

[2] = test system: VZV strain Ellen; assay: VZV Antiviral (ELISA) assay; type: cell-based; settings: for IC50 (ug/ml) VZV / % inhibition 10 ug/ml VZV: VZV strain Ellen in HFF cells; for % inhibition 10 ug/ml VZV: at 10 ug/ml
Procedure, shortened: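 HFF cells infected with VZV Ellen at low multiplicity (<0.1) overnight were seeded at 3.5×10^4 cells/well in DMEM with 2% FBS plus compound and incubated three days at 37° C., 5% CO2. Viral replication was read by ELISA against glycoprotein II with β-galactosidase fluorogenic readout (ex 365/em 450 nm); IC50 relative to no-compound fluorescence.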

[3] = test system: HSV-1; assay: HSV Antiviral (ELISA) assay; type: cell-based; settings: for IC50 (ug/ml) HSV: HSV-1 in Vero cells
Procedure, shortened: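 Vero cells in DMEM/2% FBS pretreated with compound 30 min before HSV-1 infection (MOI 0.006), then ~24 h at 37 °C. Viral gD detected by ELISA with β-galactosidase secondary and 4-methylumbelliferyl-galactoside (ex 365/em 450 nm); IC50 from fluorescence versus untreated infected cells.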

CN(C)c1cccc(NC(=S)Nc2ccc(NC(=O)c3csnn3)cc2)c1 [Example 479]
IC50 (ug/ml) HCMV [1]: 0.1 µg/mL (≈ 0.251 µM) | IC50 (ug/ml) VZV [2]: >10 µg/mL | % inhibition 10 ug/ml VZV [2]: 30% | IC50 (ug/ml) HSV [3]: >10 µg/mL

CN1CCC(N(C)c2ccc(NC(=S)Nc3ccc(NC(=O)c4ccccn4)cc3)cc2Cl)C1 (stereo not drawn) [Example 354]
IC50 (ug/ml) HCMV [1]: 2 µg/mL (≈ 4.04 µM) | IC50 (ug/ml) VZV [2]: 7 µg/mL (≈ 14.1 µM) | % inhibition 10 ug/ml VZV [2]: 75% | IC50 (ug/ml) HSV [3]: 0.8 µg/mL (≈ 1.62 µM)

O=C(Nc1ccc(NC(=S)Nc2cccc(Cl)c2)cc1)c1csnn1 [Example 992, [1,2,3]Thiadiazole-4-carboxylic acid {4-[3-(3-chloro-phenyl)-thioureido]-phenyl}-amide]
IC50 ([1]; Human betaherpesvirus 5, Fibroblast, read-out: IC50 (ug/ml) HCMV): 0.018 µg/mL (≈ 0.0462 µM) | IC50 ([2]; Human alphaherpesvirus 3, VZV strain Ellen in HFF cells, read-out: IC50 (ug/ml) VZV): > 10 µg/mL | inhibition at 10 µg/mL ([2]; Human alphaherpesvirus 3, read-out: % inhibition 10 ug/ml VZV, at 10 ug/ml, VZV strain Ellen in HFF cells): 29% | IC50 ([3]; Human alphaherpesvirus 1, HSV-1 in Vero cells, read-out: IC50 (ug/ml) HSV): > 10 µg/mL

CN(C)CC(=O)Nc1ccc(NC(=S)Nc2ccc(NC(=O)c3ccco3)cc2)cc1Cl [Example 361]
IC50 (ug/ml) HCMV [1]: 0.25 µg/mL (≈ 0.53 µM) | IC50 (ug/ml) VZV [2]: >10 µg/mL | % inhibition 10 ug/ml VZV [2]: 26% | IC50 (ug/ml) HSV [3]: 8 µg/mL (≈ 17 µM)

COC(=O)c1cc(NC(=S)Nc2ccc(NC(=O)c3csnn3)cc2)cc(C(=O)OC)c1 [Example 485]
IC50 (ug/ml) HCMV [1]: 0.03 µg/mL (≈ 0.0636 µM) | IC50 (ug/ml) VZV [2]: >10 µg/mL | % inhibition 10 ug/ml VZV [2]: 11% | IC50 (ug/ml) HSV [3]: >10 µg/mL

COc1cc(OC)c(NC(=S)Nc2ccc(NC(=O)c3cccc4cccnc34)cc2)cc1Cl [Example 146]
IC50 (ug/ml) HCMV [1]: >10 µg/mL | IC50 (ug/ml) VZV [2]: >10 µg/mL | % inhibition 10 ug/ml VZV [2]: 14% | IC50 (ug/ml) HSV [3]: >10 µg/mL

CC(=O)Nc1ccc(NC(=S)Nc2ccc(NC(=O)c3ccco3)cc2)cc1Cl [Example 409]
IC50 (ug/ml) HCMV [1]: 2 µg/mL (≈ 4.66 µM) | IC50 (ug/ml) VZV [2]: >10 µg/mL | % inhibition 10 ug/ml VZV [2]: 5% | IC50 (ug/ml) HSV [3]: >10 µg/mL

NNC(=O)c1cccc(NC(=S)Nc2ccc(NC(=O)c3csnn3)cc2)c1 [Example 449]
IC50 (ug/ml) HCMV [1]: 1.6 µg/mL (≈ 3.87 µM) | IC50 (ug/ml) VZV [2]: >10 µg/mL | IC50 (ug/ml) HSV [3]: >10 µg/mL

COc1cc(OC)c(NC(=S)Nc2ccc(NC(=O)c3ccc([N+](=O)[O-])o3)cc2)cc1Cl [Example 161]
IC50 (ug/ml) HCMV [1]: >10 µg/mL | IC50 (ug/ml) VZV [2]: 5 µg/mL (≈ 10.5 µM) | % inhibition 10 ug/ml VZV [2]: 113% | IC50 (ug/ml) HSV [3]: 3 µg/mL (≈ 6.29 µM)

COc1cc(OC)c(NC(=S)Nc2ccc(NC(=O)c3nnsc3-c3ccoc3)cc2)cc1Cl [Example 280]
IC50 (ug/ml) HCMV [1]: >10 µg/mL | IC50 (ug/ml) VZV [2]: >10 µg/mL | IC50 (ug/ml) HSV [3]: >10 µg/mL

CN1CCC(N(C)c2ccc(NC(=S)Nc3ccc(NC(=O)c4ccco4)cc3)cc2Cl)CC1 [Example 344]
IC50 (ug/ml) HCMV [1]: 0.25 µg/mL (≈ 0.502 µM) | IC50 (ug/ml) VZV [2]: 7 µg/mL (≈ 14.1 µM) | % inhibition 10 ug/ml VZV [2]: 72% | IC50 (ug/ml) HSV [3]: 4 µg/mL (≈ 8.03 µM)

Nc1cc(Cl)cc(NC(=S)Nc2ccc(NC(=O)c3csnn3)cc2)c1 [Example 466]
IC50 (ug/ml) HCMV [1]: 0.011 µg/mL (≈ 0.0272 µM) | IC50 (ug/ml) VZV [2]: >10 µg/mL | % inhibition 10 ug/ml VZV [2]: 93% | IC50 (ug/ml) HSV [3]: >10 µg/mL

O=C(Nc1ccc(NC(=S)Nc2cccc(O)c2)cc1)c1ccco1 [Example 474]
IC50 (ug/ml) HCMV [1]: 1 µg/mL (≈ 2.83 µM) | IC50 (ug/ml) VZV [2]: >10 µg/mL | % inhibition 10 ug/ml VZV [2]: 22% | IC50 (ug/ml) HSV [3]: >10 µg/mL

COc1cc(OC)c(NC(=S)Nc2ccc(NC(=O)c3ccncc3)cc2)cc1Cl [Example 155]
IC50 (ug/ml) HCMV [1]: 5 µg/mL (≈ 11.3 µM) | IC50 (ug/ml) VZV [2]: >10 µg/mL | % inhibition 10 ug/ml VZV [2]: 22% | IC50 (ug/ml) HSV [3]: 5 µg/mL (≈ 11.3 µM)

Cc1nc2cc(NC(=S)Nc3ccc(NC(=O)c4ccco4)cc3)ccc2[nH]1 [Example 495]
IC50 (ug/ml) HCMV [1]: 3 µg/mL (≈ 7.66 µM) | IC50 (ug/ml) VZV [2]: >10 µg/mL | % inhibition 10 ug/ml VZV [2]: 27% | IC50 (ug/ml) HSV [3]: >10 µg/mL

[1,2,3]Thiadiazole-4-carboxylic acid {4-[3-(3,4,5-chloro-4-isoxazol-5-yl-phenyl)-thioureido]-phenyl}-amide [Example 990]
IC50 (ug/ml) HCMV [1]: 0.011 µg/mL | IC50 (ug/ml) VZV [2]: 4.5 µg/mL | % inhibition 10 ug/ml VZV [2]: 99% | IC50 (ug/ml) HSV [3]: 8 µg/mL

COc1cc(OC)c(NC(=S)Nc2ccc(NC(=O)c3occc3C)cc2)cc1Cl [Example 167]
IC50 (ug/ml) HCMV [1]: 9 µg/mL (≈ 20.2 µM) | IC50 (ug/ml) VZV [2]: 3.8 µg/mL (≈ 8.52 µM) | % inhibition 10 ug/ml VZV [2]: 70% | IC50 (ug/ml) HSV [3]: 10 µg/mL (≈ 22.4 µM)
